Results as given in patent US20260226073A1 (AURIGENE ONCOLOGY LIMITED, priority 2023, published 2026).

Tests used:
[1] = target: T1, human recombinant CBL-b (human Biotin CBL-b recombinant protein a.a. 39-426) (Homo sapiens, UniProt Q13191); assay: Biochemical assay for CBL-b inhibition (ligand displacement TR-FRET); format: binding; conditions: 50 nM CBL-b, 0.3 μM Bodipy FL-Probe, read-out: IC50 (CBL-b inhibition, group)
T1 construct: human Biotin CBL-b recombinant protein a.a; 39-426; Biotin (biotinylated); made in house
In short: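 Biotinylated CBL-b (a.a. 39-426, 50 nM final) pre-incubated with compound 60 min at RT in HEPES/NaCl/Triton/BSA/TCEP buffer, then Bodipy FL probe (0.3 μM final) 60 min, then terbium-streptavidin 60 min. TR-FRET read at 665/615 nm; IC50 and % max inhibition from sigmoidal fits.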

[2] = system: NFAT signaling pathway in Jurkat NFAT reporter cells; assay: Jurkat NFAT reporter assay; format: cell-based; conditions: Homo sapiens, 30 min with compound, then soluble anti-human CD3/CD28 antibody for 6 hours, luciferase readout, read-out: EC50 (Group)
In short: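 Jurkat cells bearing an NFAT-RE-driven luciferase reporter (1×10^5 per well) preincubated with Cbl-b inhibitor for 30 min, then stimulated 6 h with soluble anti-CD3/CD28. Luminescence read with Bio-Glo; values are fold change over anti-CD3/CD28-stimulated cells without inhibitor.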

[3] = system: human PBMCs stimulated with anti-CD3/CD28 Dynabeads; assay: Human PBMC cytokine release assay (IL-2 by ELISA); format: cell-based; conditions: Dynabeads CD3/CD28 48 hours, IL-2 ELISA, fold change over baseline, read-out: EC50 (human PBMC cytokine release, group)
Description: Peripheral blood mononuclear cells (PBMC) were isolated from healthy human donor using Histopaque (Sigma). The Cbl-inhibitor was added to 1×10^5 cells per well and the plate was incubated for 30 minutes at 37° C. in 5% CO2 at different concentrations with a final DMSO concentration of <0.5%. Following incubation with the Cbl-b inhibitor, human PBMCs were stimulated with Dynabeads™ Human T-Activator CD3/CD28 (Thermo Fisher Scientific) for 48 hours. Cell free supernatant were collected after end of incubation and were analyzed for cytokine secretion, including IL-2 by ELISA (R&D Systems). Readouts were reported as fold change over baseline. Here, baseline was the measurement obtained from human PBMCs stimulated with Dynabeads™ Human T-Activator CD3/CD28, where the cells were not incubated with a Cbl-b inhibitor.

T1 sequence (Q13191 39-426): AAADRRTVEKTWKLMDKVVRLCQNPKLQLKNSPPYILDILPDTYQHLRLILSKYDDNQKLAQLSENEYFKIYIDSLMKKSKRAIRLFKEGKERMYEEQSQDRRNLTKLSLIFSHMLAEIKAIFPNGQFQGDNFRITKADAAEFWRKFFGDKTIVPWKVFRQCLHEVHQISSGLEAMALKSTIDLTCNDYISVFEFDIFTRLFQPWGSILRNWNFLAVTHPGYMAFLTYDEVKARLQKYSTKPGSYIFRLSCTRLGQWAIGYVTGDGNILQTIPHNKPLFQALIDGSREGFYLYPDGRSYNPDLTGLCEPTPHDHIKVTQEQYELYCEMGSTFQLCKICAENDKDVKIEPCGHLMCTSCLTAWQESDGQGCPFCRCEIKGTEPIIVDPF

Row | SMILES | IC50 [1] | EC50 [2] | EC50 [3]
1 | Cc1cc(CNCCC(C)C)cc(N2Cc3ccc(-c4ccc(F)cc4-c4nncn4C)cc3C2=O)n1 [Compound 300, 6-(4-Fluoro-2-(4-methyl-4H-1,2,4-triazol-3-yl)phenyl)-2-(4-((isopentylamino)-methyl)-6-methylpyridin-2-yl)isoindolin-1-one] | < 80 nM | 300 to 1000 nM | 
2 | COCCNCc1cc(C)nc(N2Cc3ccc(-c4ccc(F)cc4-c4nncn4C)cc3C2=O)c1 [Compound 302, 6-(4-Fluoro-2-(4-methyl-4H-1,2,4-triazol-3-yl)phenyl)-2-(4-(((2-methoxyethyl)-amino)methyl)-6-methylpyridin-2-yl)isoindolin-1-one] | < 80 nM | 300 to 1000 nM | 
3 | Cc1cc(CNCC(C)(C)C)cc(N2Cc3ccc(-c4ccc(F)cc4-c4nncn4C)cc3C2=O)n1 [Compound 303] | < 80 nM | 300 to 1000 nM | 
4 | Cc1cc(CNCC2CC2)cc(N2Cc3ccc(-c4ccc(F)cc4-c4nccn4C)cc3C2=O)n1 [Compound 304] | < 80 nM | 1000 to 10000 nM | 
5 | Cc1cc(CNCC(C)C)cc(N2Cc3ccc(-c4ccc(F)cc4-c4nncn4C)cc3C2=O)n1 [Compound 305] | < 80 nM | < 300 nM | 
6 | Cc1cc(CNCCC2CC2)cc(N2Cc3ccc(-c4ccc(F)cc4-c4nncn4C)cc3C2=O)n1 [Compound 307, 2-(4-(((2-Cyclopropylethyl)amino)methyl)-6-methylpyridin-2-yl)-6-(4-fluoro-2-(4-methyl-4H-1,2,4-triazol-3-yl)phenyl)isoindolin-1-one] | < 80 nM | < 300 nM | 
7 | Cc1cc(CNCC2(CO)CCC2)cc(N2Cc3ccc(-c4ccc(F)cc4-c4nncn4C)cc3C2=O)n1 [Compound 308] | < 80 nM | 1000 to 10000 nM | 
8 | Cc1cc(CNCC(C)(C)O)cc(N2Cc3ccc(-c4ccc(F)cc4-c4nncn4C)cc3C2=O)n1 [Compound 309, 6-(4-Fluoro-2-(4-methyl-4H-1,2,4-triazol-3-yl)phenyl)-2-(4-(((2-hydroxy-2-methylpropyl)amino)methyl)-6-methylpyridin-2-yl)isoindolin-1-one] | < 80 nM | < 300 nM | 
9 | [2H]C([2H])([2H])n1cnnc1-c1cc(F)ccc1-c1ccc2c(c1)C(=O)N(c1cc(CNCC3CC3)cc(C)n1)C2 [Compound 310, 2-(4-(((Cyclopropylmethyl)amino)methyl)-6-methylpyridin-2-yl)-6-(4-fluoro-2-(4-(methyl-d3)-4H-1,2,4-triazol-3-yl)phenyl)isoindolin-1-one] | < 80 nM | < 300 nM | 
10 | Cc1cc(CNCC2(O)CC2)cc(N2Cc3ccc(-c4ccc(F)cc4-c4nncn4C)cc3C2=O)n1 [Compound 311] | < 80 nM | 1000 to 10000 nM | 
11 | Cc1cc(CN[C@@H](CO)C(C)C)cc(N2Cc3ccc(-c4ccc(F)cc4-c4nncn4C)cc3C2=O)n1 [Compound 315, (R)-6-(4-Fluoro-2-(4-methyl-4H-1,2,4-triazol-3-yl)phenyl)-2-(4-(((1-hydroxy-3-methylbutan-2-yl)amino)methyl)-6-methylpyridin-2-yl)isoindolin-1-one] | < 80 nM | < 300 nM | 
12 | Cc1cc(CNCC2(O)CCCC2)cc(N2Cc3ccc(-c4ccc(F)cc4-c4nncn4C)cc3C2=O)n1 [Compound 319, 6-(4-Fluoro-2-(4-methyl-4H-1,2,4-triazol-3-yl)phenyl)-2-(4-((((1-hydroxy-cyclopentyl)methyl)amino)methyl)-6-methylpyridin-2-yl)isoindolin-1-one] | < 80 nM | < 300 nM | 
13 | Cc1cc(CNCC2CC2)cc(N2Cc3ccc(-c4ccc(F)cc4-c4nncn4C4CC4)cc3C2=O)n1 [Compound 320, 6-(2-(4-Cyclopropyl-4H-1,2,4-triazol-3-yl)-4-fluorophenyl)-2-(4-(((cyclopropyl-methyl)amino)methyl)-6-methylpyridin-2-yl)isoindolin-1-one] | < 80 nM | 300 to 1000 nM | 
14 | CCCNCc1cc(C)nc(N2Cc3ccc(-c4ccc(F)cc4-c4nncn4C)cc3C2=O)c1 [Compound 323, 6-(4-Fluoro-2-(4-methyl-4H-1,2,4-triazol-3-yl)phenyl)-2-(6-methyl-4-((propyl-amino)methyl)pyridin-2-yl)isoindolin-1-one] | < 80 nM | < 300 nM | 
15 | Cc1cc(CNCC2CCO2)cc(N2Cc3ccc(-c4ccc(F)cc4-c4nncn4C)cc3C2=O)n1 (stereo not shown) [Compound 325, 6-(4-Fluoro-2-(4-methyl-4H-1,2,4-triazol-3-yl)phenyl)-2-(6-methyl-4-(((oxetan-2-ylmethyl)amino)methyl)pyridin-2-yl)isoindolin-1-one] | < 80 nM | 1000 to 10000 nM | 
16 | Cc1cc(CNCCC(F)(F)F)cc(N2Cc3ccc(-c4ccc(F)cc4-c4nncn4C)cc3C2=O)n1 [Compound 326, 6-(4-Fluoro-2-(4-methyl-4H-1,2,4-triazol-3-yl)phenyl)-2-(6-methyl-4-(((3,3,3-trifluoropropyl)amino)methyl)pyridin-2-yl)isoindolin-1-one] | < 80 nM | 1000 to 10000 nM | 
17 | Cc1cc(CNCCCC(F)(F)F)cc(N2Cc3ccc(-c4ccc(F)cc4-c4nncn4C)cc3C2=O)n1 [Compound 328, 6-(4-Fluoro-2-(4-methyl-4H-1,2,4-triazol-3-yl)phenyl)-2-(6-methyl-4-(((4,4,4-trifluorobutyl)amino)methyl)pyridin-2-yl)isoindolin-1-one] | < 80 nM | 300 to 1000 nM | 

Now from value to molecule, other results behind:

Row | IC50 [1] | EC50 [2] | SMILES | EC50 [3]
18 | 80 to 300 nM | < 300 nM | C[C@H]1CCCN(Cc2cc(N3Cc4ccc(C5(Cc6nncn6C)COC5)cc4C3=O)cc(C(F)(F)F)c2)C1 [Compound 1, (S)-6-(3-((4-Methyl-4H-1,2,4-triazol-3-yl)methyl)oxetan-3-yl)-2-(3-((3-methylpiperidin-1-yl)methyl)-5-(trifluoromethyl)phenyl)isoindolin-1-one] | < 5000 nM
19 | < 80 nM | < 300 nM | C[C@H]1CCCN(Cc2cc(N3Cc4ccc(C5(Cc6nncn6C)COC5)cc4C3=O)nc(C(F)(F)F)c2)C1 [Compound 2] | < 5000 nM
20 | < 80 nM | < 300 nM | Cc1cc(CN2CCC[C@H](C)C2)cc(N2Cc3ccc(C4(Cc5nncn5C)COC4)cc3C2=O)c1 [Compound 4, (S)-6-(3-((4-Methyl-4H-1,2,4-triazol-3-yl)methyl)oxetan-3-yl)-2-(3-methyl-5-((3-methylpiperidin-1-yl)methyl)phenyl)isoindolin-1-one] | < 5000 nM
21 | < 80 nM | < 300 nM | C[C@H]1CCCN(Cc2cc(Cl)cc(N3Cc4ccc(C5(Cc6nncn6C)COC5)cc4C3=O)c2)C1 [Compound 6, (S)-2-(3-Chloro-5-((3-methylpiperidin-1-yl)methyl)phenyl)-6-(3-((4-methyl-4H-1,2,4-triazol-3-yl)methyl)oxetan-3-yl)isoindolin-1-one] | < 5000 nM
22 | 80 to 300 nM | 300 to 1000 nM | CCc1cc(CN2CCC[C@H](C)C2)cc(N2Cc3ccc(C4(Cc5nncn5C)COC4)cc3C2=O)c1 [Compound 11, (S)-2-(3-Ethyl-5-((3-methylpiperidin-1-yl)methyl)phenyl)-6-(3-((4-methyl-4H-1,2,4-triazol-3-yl)methyl)oxetan-3-yl)isoindolin-1-one] | < 5000 nM
23 | < 80 nM | 300 to 1000 nM | Cc1cc(C(C)N2CCC[C@H](C)C2)cc(N2Cc3ccc(C4(Cc5nncn5C)COC4)cc3C2=O)c1 (stereo partly drawn) [Compound 12, 6-(3-((4-Methyl-4H-1,2,4-triazol-3-yl)methyl)oxetan-3-yl)-2-(3-methyl-5-(1-((S)-3-methylpiperidin-1-yl)ethyl)phenyl)isoindolin-1-one] | < 5000 nM
24 | < 80 nM | 300 to 1000 nM | Cc1cc(CN[C@@H]2CCC[C@H]2O)cc(N2Cc3ccc(-c4ccc(F)cc4-c4nncn4C)cc3C2=O)n1 [Compound 314, 6-(4-Fluoro-2-(4-methyl-4H-1,2,4-triazol-3-yl)phenyl)-2-(4-((((1R,2R)-2-hydroxycyclopentyl)amino)methyl)-6-methylpyridin-2-yl)isoindolin-1-one] | 
25 | < 80 nM | < 300 nM | Cc1cc(CNCC2CCCC2)cc(N2Cc3ccc(-c4ccc(F)cc4-c4nncn4C)cc3C2=O)n1 [Compound 329, 2-(4-(((Cyclopentylmethyl)amino)methyl)-6-methylpyridin-2-yl)-6-(4-fluoro-2-(4-methyl-4H-1,2,4-triazol-3-yl)phenyl)isoindolin-1-one] | 
26 | < 80 nM | 1000 to 10000 nM | Cc1nc(N2Cc3ccc(-c4ccc(F)cc4-c4nncn4C)cc3C2=O)cc(CNCC2CC2)c1C(F)(F)F [Compound 337, 2-(4-(((Cyclopropylmethyl)amino)methyl)-6-methyl-5-(trifluoromethyl)-pyridin-2-yl)-6-(4-fluoro-2-(4-methyl-4H-1,2,4-triazol-3-yl)phenyl)isoindolin-1-one] | 
